US8435960B2, “Devices for improved wound management” (Lakewood-Amedex, Inc., priority 1998, dated 2013)
Strand notation (5' to 3'): a small letter for the sugar, then the base; units joined by * are phosphorothioate-linked, units joined directly phosphodiester-linked; [ ] holds rarer units or linkages, { } end groups; capitals alone tell only the bases. [invdT] = inverted (3'-3') thymidine; {BuOH} = butanol end-blocking group; m = 2'-O-methyl

What was measured:
Strep. mutans = experiment: Stationary growth assay, Strep. mutans; assay type: cell-based; conditions: 16 A260 units; for CFU/ml: Strep. mutans 10^7 CFU/ml start; for Inhibition (%): Strep. mutans, approx. 24 hours
[1] = tested on: Pseudomonas aeruginosa (Strain Utah 4); experiment: Burn wound infection model, subcutaneous (systemic) infection; assay type: in vivo, BALB/c female mice
[2] = tested on: Pseudomonas aeruginosa (Strain Utah 4); experiment: Burn wound infection model, topical infection and topical treatment; assay type: in vivo, BALB/c female mice; conditions: for % Survival / No. Survivors/Total: topical infection, topical treatment
S. aureus ACC # 13301 = experiment: Limited nutrient growth study, S. aureus; assay type: cell-based; conditions: approx. 24 hours; for Inhibition (%): oligonucleotide pH 1.5, 32 A260 units
[3] = tested on: P. aeruginosa ACC # 10145; experiment: Limited nutrient growth study, P. aeruginosa; assay type: cell-based; conditions: approx. 24 hours; for Inhibition (%): oligonucleotide pH 1.5, 32 A260 units
S. aureus = experiment: Stationary growth assay, S. aureus; assay type: cell-based; conditions: S. aureus 10^7 CFU/ml start, 32 A260 units
Staphylococcal furuncle = experiment: Treatment of Staphylococcal furuncle in a human subject; assay type: in vivo
Pseudomonas aeruginosa [4] = experiment: Topical treatment of outer ear infections in chinchillas; assay type: in vivo
Strep. pyogenes = experiment: Treatment of Strep. pyogenes skin infection on a dog; assay type: in vivo; conditions: cut on abdomen, Neosporin for 3 days, nucleic acid pH 1.5, two treatments separated by 12 hours
Pseudomonas aeruginosa [5] = experiment: Topical Pseudomonas burn model of infection in immuno-compromised mice (Example 9); assay type: in vivo; conditions: topical treatment at 4 hrs. and 8 hrs. post infection, pH 1.5
Pseudomonas aeruginosa [6] = experiment: Systemic Pseudomonas burn model of infection (Example 9); assay type: in vivo, mice
[7] = topical treatment 1800 A/ml, individual mice # 1-3, NG = no growth
[8] = mice, burn wound infection with 5 LD50 P. aeruginosa, summary of all studies
[9] = pH of nucleic acid 3, 32 A260 units
[10] = pH of nucleic acid 4, 32 A260 units
[11] = pH of nucleic acid 5, 32 A260 units
[12] = pH of nucleic acid 7, 32 A260 units
[13] = after 16 hours from the initial treatment

Question: For “114.6: 2′-O-methyl substituted ribonucleotides phosphodiester linked with 5′ and 3′ inverted T end-blocking, sequence CGCCAT”, which CFU/ml (Strep. mutans; pH 3) is on record?
Answer: Its CFU/ml is 0 CFU/ml.

Question: And the CFU/ml (Strep. mutans; pH 7)?
Answer: Its CFU/ml is 10^7 CFU/ml.

Question: What about the “Inhibition (%)” value (Strep. mutans; pH 3) of the same molecule?
Answer: Its value is 100%.

Question: And the “Inhibition (%)” value (Strep. mutans; pH 7)?
Answer: Its value is 0%.

Question: How did the CFU/ml (Strep. mutans; pH 3) turn out when “114.21: 2′-O-methyl substituted ribonucleotides phosphodiester linked with 5′ and 3′ inverted T end-blocking, sequence GGAACGCGCCATTGGTATATC (all 2'-O-methyl, all phosphodiester, 5' [invdT], 3' [invdT], T or U not given here)” was run?
Answer: The CFU/ml was 0 CFU/ml.

Question: And the CFU/ml (Strep. mutans; pH 7)?
Answer: The CFU/ml was 10^7 CFU/ml.

Question: And the “Inhibition (%)” value (Strep. mutans; pH 3)?
Answer: Its value is 100%.

Question: And the “Inhibition (%)” value (Strep. mutans; pH 7)?
Answer: Its value is 0%.

Question: What does the source list for `CO[C@@H]1[C@H](O)[C@@H](COP(=O)(O)O)O[C@H]1n1ccc(=O)[nH]c1=O` [compound 6, 2′-O-methyl Uridine monophosphate]?
Answer: # Survivors/Total Animals Tested ([1]; mouse, in vivo): 0/5; % Survival ([1]; mouse, in vivo): 0%; therapeutic activity ([1]; mouse, in vivo): did not appear to show any therapeutic activity

Question: What does the source list for “HO—CH2CH2CH2CH2-ACg•CgC•CAU•Ugg-CH2CH2CH2CH2—OH [B2]”?
Answer: # Survivors/Total Animals Tested ([1]; mouse, in vivo): 28/30; No. Survivors/Total Animals ([1]; mouse, in vivo): 5/5; survival rate ([1]; mouse, in vivo): 100%; survival rate (efficacy) ([1]; mouse, in vivo, iv): 80%; survival rate (efficacy) ([1]; mouse, in vivo, sc): 40%; % Survival ([2]; concentration 335 A/ml): 40%; No. Survivors/Total ([2]; concentration 335 A/ml): 2/5; % Survival ([2]; concentration 1800 A/ml): 90%; No. Survivors/Total ([2]; concentration 1800 A/ml): 9/10; Microbiological quantitation of tissues, Blood [2, 7]: devoid of any detectable CFUs; Microbiological quantitation of tissues, Livers [2, 7]: two out of three; Microbiological quantitation of tissues, Spleens [2, 7]: devoid of any detectable CFUs

Question: How did the “# Survivors/Total Animals Tested” value ([1]; mouse, in vivo) turn out when “HO—CH2CH2CH2CH2-ACg•CgC•CAU•Ugg-CH2CH2CH2CH2—OH [B7]” was run?
Answer: Its value is 2/5.

Question: And the “% Survival” value ([1]; mouse, in vivo)?
Answer: Its value is 40%.

Question: What about the “% Survival” value ([2]; concentration 1800 A/ml) of the same molecule?
Answer: The value was 40%.

Question: And the “No. Survivors/Total” value ([2]; concentration 1800 A/ml)?
Answer: The value was 2/5.

Question: For “HO—CH2CH2CH2CH2-AUG-CH2CH2CH2CH2—OH [compound 2]”, which “# Survivors/Total Animals Tested” value ([1]; mouse, in vivo) is on record?
Answer: Its value is 3/5.

Question: What about the “% Survival” value ([1]; mouse, in vivo) of the same molecule?
Answer: Its value is 60%.

Question: Which “# Survivors/Total Animals Tested” value ([1]; mouse, in vivo) does the source give for “HO—CH2CH2CH2CH2-CgC•CAU—CH2CH2CH2CH2—OH [compound 7]” here?
Answer: The value was 2/5.

Question: What about the “% Survival” value ([1]; mouse, in vivo) of the same molecule?
Answer: Its value is 40%.

Question: With “HO—CH2CH2CH2CH2-G-CH2CH2CH2CH2—OH [compound 3]” as the molecule, how does the “# Survivors/Total Animals Tested” value [1, 8] read?
Answer: Its value is 3/5.

Question: And the “% Survival” value [1, 8]?
Answer: Its value is 60%.

Question: What does the source list for “HO—CH2CH2CH2CH2-GGG-CH2CH2CH2CH2—OH [compound 5]”?
Answer: # Survivors/Total Animals Tested ([1]; mouse, in vivo): 3/5; % Survival ([1]; mouse, in vivo): 60%

Question: What does the source list for “HO—CH2CH2CH2CH2—UUU—CH2CH2CH2CH2—OH [compound 4]”?
Answer: # Survivors/Total Animals Tested ([1]; mouse, in vivo): 2/5; % Survival ([1]; mouse, in vivo): 40%

Question: How did the “Inhibition (%)” value (S. aureus ACC # 13301) turn out when “Homopolymer, 12 A: AAAAAAAAAAAA, 2′-O-methyl substituted ribonucleotides phosphodiester linked, 3′ and 5′ butanol end-blocking ({BuOH}-mAmAmAmAmAmAmAmAmAmAmAmA-{BuOH})” was run?
Answer: The value was 100%.

Question: And the “Inhibition (%)” value [3]?
Answer: Its value is 100%.

Question: For “Homopolymer, 12 C: CCCCCCCCCCCC, 2′-O-methyl substituted ribonucleotides phosphodiester linked, 3′ and 5′ butanol end-blocking ({BuOH}-mCmCmCmCmCmCmCmCmCmCmCmC-{BuOH})”, which “Inhibition (%)” value (S. aureus ACC # 13301) is on record?
Answer: The value was 100%.

Question: And the “Inhibition (%)” value [3]?
Answer: Its value is 100%.

Question: With “Homopolymer, 12 G: GGGGGGGGGGGG, 2′-O-methyl substituted ribonucleotides phosphodiester linked, 3′ and 5′ butanol end-blocking ({BuOH}-mGmGmGmGmGmGmGmGmGmGmGmG-{BuOH})” as the molecule, how does the “Inhibition (%)” value (S. aureus ACC # 13301) read?
Answer: The value was 100%.

Question: What about the “Inhibition (%)” value [3] of the same molecule?
Answer: Its value is 100%.

Question: With “Homopolymer, 12 U: UUUUUUUUUUUU, 2′-O-methyl substituted ribonucleotides phosphodiester linked, 3′ and 5′ butanol end-blocking (2'-O-methyl; butanol end caps)” as the molecule, how does the “Inhibition (%)” value (S. aureus ACC # 13301) read?
Answer: The value was 100%.

Question: What about the “Inhibition (%)” value [3] of the same molecule?
Answer: The value was 100%.

Question: How did the “Inhibition of Growth (%)” value (S. aureus ACC # 13301; pH of nucleic acid 2, 32 A260 units, A625) turn out when “SEQ ID NO: 1: 2′-O-methyl ribonucleotides, phosphodiester linkage, 5′ and 3′ inverted T end-blocked, sequence CGCCATTGG (all 2'-O-methyl, all phosphodiester, 5' [invdT], 3' [invdT], T or U not given here)” was run?
Answer: Its value is 100%.

Question: And the “Inhibition of Growth (%)” value (S. aureus ACC # 13301; [9])?
Answer: The value was 100%.

Question: And the “Inhibition of Growth (%)” value (S. aureus ACC # 13301; [10])?
Answer: The value was 100%.

Question: And the “Inhibition of Growth (%)” value (S. aureus ACC # 13301; [11])?
Answer: Its value is 16%.

Question: And the “Inhibition of Growth (%)” value (S. aureus ACC # 13301; [12])?
Answer: The value was 0%.

Question: And the “Inhibition of Growth (%)” value ([3]; pH of nucleic acid 2, 32 A260 units)?
Answer: Its value is 100%.

Question: What about the “Inhibition of Growth (%)” value [3, 9] of the same molecule?
Answer: Its value is 100%.

Question: What about the “Inhibition of Growth (%)” value [3, 10] of the same molecule?
Answer: Its value is 100%.

Question: And the “Inhibition of Growth (%)” value [3, 11]?
Answer: The value was 0%.

Question: What about the “Inhibition of Growth (%)” value [3, 12] of the same molecule?
Answer: Its value is 0%.

Question: And the CFU/ml (S. aureus; pH of nucleic acid 2, approx. 24 hours)?
Answer: The CFU/ml was 0 CFU/ml.

Question: And the CFU/ml (S. aureus; pH of nucleic acid 3)?
Answer: The CFU/ml was 10^3 CFU/ml.

Question: And the CFU/ml (S. aureus; pH of nucleic acid 4)?
Answer: Its CFU/ml is 10^6 CFU/ml.

Question: And the CFU/ml (S. aureus; pH of nucleic acid 5)?
Answer: Its CFU/ml is 10^7 CFU/ml.

Question: And the CFU/ml (S. aureus; pH of nucleic acid 7)?
Answer: Its CFU/ml is 10^7 CFU/ml.

Question: How did the furuncle size (Staphylococcal furuncle; 1.5 cm furuncle, after 8 hours of treatment, 100 μl, 18.9 mMolar in water, pH 1.5) turn out when “SEQ ID NO: 9: ACGCGCCATTAT, 2′-O-methyl substituted ribonucleotides, phosphodiester linked, end blocked with an inverted T at both the 5′ and 3′ ends (all 2'-O-methyl, all phosphodiester, 5' [invdT], 3' [invdT], T or U not given here)” was run?
Answer: Its furuncle size is “approximately 0.5 cm”.

Question: What about the “size of remaining pinkish area of the furuncle” value (Staphylococcal furuncle; [13]) of the same molecule?
Answer: The value was less than 0.5 cm.

Question: What about the “swelling, pain, inflammation of furuncle” value (Staphylococcal furuncle; [13]) of the same molecule?
Answer: Its value is “virtually no swelling, pain, or inflammation”.

Question: What about the “effectiveness in vehicle mixture (water/ethanol/propylene glycol) compared with water” value (Pseudomonas aeruginosa [4]; otoscopic examination, 2 mMolar in vehicle mixture vs 2.8 mMolar in water) of the same molecule?
Answer: The value was “slightly more effective”.

Question: What about the “outcome of ear infections by otoscopic examination” value (Pseudomonas aeruginosa [4]; two daily topical applications, pH 1.5, by day 7 post infection (4 days after treatment began)) of the same molecule?
Answer: The value was “completely cured”.

Question: What about the “outcome of Strep. pyogenes skin infection” value (Strep. pyogenes) of the same molecule?
Answer: Its value is “completely cleared up the infection, swelling, inflammation, and sensitivity to touch”.

Question: What about the “survival of treated animals” value (Pseudomonas aeruginosa [5]; cyclophosphamide-treated mice, 10^9 CFU topically on burn) of the same molecule?
Answer: The value was 100%.

Question: And the “systemic Pseudomonas infection in treated animals” value (Pseudomonas aeruginosa [5])?
Answer: The value was “free of systemic Pseudomonas infections”.

Question: What about the “survival of treated mice” value (Pseudomonas aeruginosa [6]; 10^6 or 10^7 CFU S.C. after burn, treatment I.V. (40% of dose) and S.C., 40 treated mice, pH 1.5) of the same molecule?
Answer: The value was 100%.

Question: What about the “Pseudomonas bacteria in the spleen, liver, or blood” value (Pseudomonas aeruginosa [6]; treated surviving mice sacrificed and checked for sepsis) of the same molecule?
Answer: Its value is “not detected”.

Question: With “dihydroxydibutyldiphophate 2′-O-methyl uridine [BUB]” as the molecule, how does the “# Survivors/Total Animals Tested” value ([1]; mouse, in vivo) read?
Answer: Its value is 7/8.

Question: What about the “% Survival” value ([1]; mouse, in vivo) of the same molecule?
Answer: The value was 87.5%.
